Test results as given in US4361515A, “Antihyperlipemic dihydro-ML-236B derivatives, their preparation and use” (Sankyo Company, Limited, priority 1980, dated 1982).

How the values were obtained:
[1] = Toxicity in mice, intraperitoneal administration; details: mouse, in vivo, ip, read-out: dose at which mice survive
[2] = system: synthesis of cholesterol in a rat liver; assay: Inhibitory activity against the biosynthesis of cholesterol in a rat liver; type: biochemical
Procedure: 10. Inhibitory activity against the biosynthesis of cholesterol: a 50% inhibition of the synthesis of cholesterol in a rat liver is observed at a concentration of 0.04 μg/ml.

[3] = Solubility in organic solvents; type: physicochemical

With CCC(C)C(=O)OC1CCC(O)C2=CC(O)C(C)C(CCC3CC(O)CC(=O)O3)C21 (centres unmarked) [3',5'-dihydroxy-(DH.ML-236B), 3',5'-Dihydroxy-(DH.ML-236B)] the MTD [1] was ≤ 1 mg/kg.

In the case of CC1C=C2C=CC(C)C(CCC3CC(O)CC(=O)O3)C2C(O)C1 (centres unmarked) [MB-530A], the “concentration at which a 50% inhibition of the synthesis of cholesterol is observed” value [2] is reported as 0.04 µg/mL, the Solubility ([3]; benzene) is reported as “soluble” and the Solubility ([3]; hexane and petroleum ether) is reported as “insoluble”. The Solubility ([3]; methanol, ethanol, acetone, ethyl acetate, chloroform and carbon tetrachloride) was “readily soluble”.
